From ChEMBL document CHEMBL1201862, “PubChem BioAssay data set” (2004)
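These data come from cells grown in 96-well plates and exposed to compound for 48 hours at five concentrations. At the GI50, growth is halved.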 Active and inactive are the calls of the source. No stated cut-off is given here; in the data, active = GI50 up to about 1.1 µM and inactive = higher.

Key:
Assay in all cases: NCI anticancer screen, dose series, 48 h
786-0 = test system: 786-0
A498 = test system: A498
A549 = test system: A549
ACHN = test system: ACHN
BT-549 = test system: BT-549
CAKI-1 = test system: CAKI-1
EKVX = test system: EKVX
HCT-116 = test system: HCT-116
HCT-15 = test system: HCT-15
HL-60 = test system: HL-60
HOP-62 = test system: HOP-62
HOP-92 = test system: HOP-92
HT-29 = test system: HT-29
Hs-578T = test system: Hs-578T
IGROV-1 = test system: IGROV-1
K562 = test system: K562
KM12 = test system: KM12
LOX IMVI = test system: LOX IMVI
M14 = test system: M14
MCF7 = test system: MCF7
MDA-MB-231 = test system: MDA-MB-231
MDA-MB-435 = test system: MDA-MB-435
MDA-N = test system: MDA-N
Malme-3M = test system: Malme-3M
NCI-H226 = test system: NCI-H226
NCI-H23 = test system: NCI-H23
NCI-H460 = test system: NCI-H460
NCI-H522 = test system: NCI-H522
NCI/ADR-RES = test system: NCI/ADR-RES
OVCAR-3 = test system: OVCAR-3
OVCAR-4 = test system: OVCAR-4
OVCAR-5 = test system: OVCAR-5
OVCAR-8 = test system: OVCAR-8
PC-3 = test system: PC-3
RPMI-8226 = test system: RPMI-8226
RXF 393 = test system: RXF 393
SF-268 = test system: SF-268
SF-295 = test system: SF-295
SF-539 = test system: SF-539
SK-MEL-28 = test system: SK-MEL-28
SK-MEL-2 = test system: SK-MEL-2
SK-MEL-5 = test system: SK-MEL-5
SK-OV-3 = test system: SK-OV-3
SN12C = test system: SN12C
SNB-75 = test system: SNB-75
SW-620 = test system: SW-620
T47D = test system: T47D
TK-10 = test system: TK-10
U-251 = test system: U-251
UACC-257 = test system: UACC-257
UACC-62 = test system: UACC-62
UO-31 = test system: UO-31
CCRF-CEM = test system: CCRF-CEM
COLO 205 = test system: COLO 205
DU-145 = test system: DU-145
HCC 2998 = test system: HCC 2998
MOLT-4 = test system: MOLT-4
SNB-19 = test system: SNB-19
SR = test system: SR

SMILES: O=C(Cc1nc2ccc(C(=O)c3ccccc3)cc2nc1O)C(=O)Nc1ccc(Br)cc1
- GI50 (786-0): > 100 µM (inactive)
- GI50 (A498): > 100 µM (inactive)
- GI50 (A549): > 100 µM (inactive)
- GI50 (ACHN): 71.8 µM (inactive)
- GI50 (BT-549): > 100 µM (inactive)
- GI50 (CAKI-1): 40.1 µM (inactive)
- GI50 (EKVX): > 100 µM (inactive)
- GI50 (HCT-116): 75.3 µM (inactive)
- GI50 (HCT-15): 54.3 µM
- GI50 (HL-60): 69.7 µM (inactive)
- GI50 (HOP-62): > 100 µM (inactive)
- GI50 (HOP-92): 71 µM (inactive)
- GI50 (HT-29): > 100 µM (inactive)
- GI50 (Hs-578T): 53 µM (inactive)
- GI50 (IGROV-1): > 100 µM (inactive)
- GI50 (K562): 49.2 µM (inactive)
- GI50 (KM12): 34.8 µM (inactive)
- GI50 (LOX IMVI): 79.4 µM (inactive)
- GI50 (M14): > 100 µM (inactive)
- GI50 (MCF7): > 100 µM (inactive)
- GI50 (MDA-MB-231): > 100 µM (inactive)
- GI50 (MDA-MB-435): 44.4 µM (inactive)
- GI50 (MDA-N): 39.7 µM (inactive)
- GI50 (Malme-3M): > 100 µM (inactive)
- GI50 (NCI-H226): 78.2 µM (inactive)
- GI50 (NCI-H23): > 100 µM (inactive)
- GI50 (NCI-H460): > 100 µM (inactive)
- GI50 (NCI-H522): 48.9 µM (inactive)
- GI50 (NCI/ADR-RES): > 100 µM (inactive)
- GI50 (OVCAR-3): > 100 µM (inactive)
- GI50 (OVCAR-4): 44.4 µM (inactive)
- GI50 (OVCAR-5): > 100 µM (inactive)
- GI50 (OVCAR-8): 96.2 µM (inactive)
- GI50 (PC-3): 88.1 µM (inactive)
- GI50 (RPMI-8226): 99.3 µM (inactive)
- GI50 (RXF 393): > 100 µM (inactive)
- GI50 (SF-268): > 100 µM (inactive)
- GI50 (SF-295): > 100 µM (inactive)
- GI50 (SF-539): > 100 µM (inactive)
- GI50 (SK-MEL-28): > 100 µM (inactive)
- GI50 (SK-MEL-2): > 100 µM (inactive)
- GI50 (SK-MEL-5): > 100 µM (inactive)
- GI50 (SK-OV-3): > 100 µM (inactive)
- GI50 (SN12C): > 100 µM (inactive)
- GI50 (SNB-75): 38 µM (inactive)
- GI50 (SW-620): > 100 µM (inactive)
- GI50 (T47D): > 100 µM (inactive)
- GI50 (TK-10): > 100 µM (inactive)
- GI50 (U-251): > 100 µM (inactive)
- GI50 (UACC-257): > 100 µM (inactive)
- GI50 (UACC-62): > 100 µM (inactive)
- GI50 (UO-31): 57.7 µM (inactive)

SMILES: CC(=O)c1cc2ccccc2oc1=O [3-ACETYLCOUMARIN]
- GI50 (786-0): > 100 µM (inactive)
- GI50 (A498): > 100 µM (inactive)
- GI50 (A549): > 100 µM (inactive)
- GI50 (ACHN): > 100 µM (inactive)
- GI50 (BT-549): > 100 µM (inactive)
- GI50 (CAKI-1): > 100 µM (inactive)
- GI50 (CCRF-CEM): > 100 µM (inactive)
- GI50 (COLO 205): > 100 µM (inactive)
- GI50 (DU-145): > 100 µM (inactive)
- GI50 (EKVX): > 100 µM (inactive)
- GI50 (HCC 2998): > 100 µM (inactive)
- GI50 (HCT-116): > 100 µM (inactive)
- GI50 (HCT-15): > 100 µM
- GI50 (HL-60): > 100 µM (inactive)
- GI50 (HOP-62): > 100 µM (inactive)
- GI50 (HOP-92): 48.8 µM (inactive)
- GI50 (HT-29): > 100 µM (inactive)
- GI50 (Hs-578T): > 100 µM (inactive)
- GI50 (IGROV-1): > 100 µM (inactive)
- GI50 (K562): > 100 µM (inactive)
- GI50 (KM12): > 100 µM (inactive)
- GI50 (LOX IMVI): > 100 µM (inactive)
- GI50 (M14): > 100 µM (inactive)
- GI50 (MCF7): 36.2 µM (inactive)
- GI50 (MDA-MB-231): > 100 µM (inactive)
- GI50 (MDA-MB-435): > 100 µM (inactive)
- GI50 (MDA-N): > 100 µM (inactive)
- GI50 (MOLT-4): > 100 µM (inactive)
- GI50 (Malme-3M): > 100 µM (inactive)
- GI50 (NCI-H226): > 100 µM (inactive)
- GI50 (NCI-H23): > 100 µM (inactive)
- GI50 (NCI-H460): > 100 µM (inactive)
- GI50 (NCI-H522): > 100 µM (inactive)
- GI50 (NCI/ADR-RES): > 100 µM (inactive)
- GI50 (OVCAR-3): > 100 µM (inactive)
- GI50 (OVCAR-4): > 100 µM (inactive)
- GI50 (OVCAR-5): > 100 µM (inactive)
- GI50 (OVCAR-8): > 100 µM (inactive)
- GI50 (PC-3): > 100 µM (inactive)
- GI50 (RPMI-8226): > 100 µM (inactive)
- GI50 (RXF 393): > 100 µM (inactive)
- GI50 (SF-268): > 100 µM (inactive)
- GI50 (SF-295): > 100 µM (inactive)
- GI50 (SF-539): > 100 µM (inactive)
- GI50 (SK-MEL-28): > 100 µM (inactive)
- GI50 (SK-MEL-2): > 100 µM (inactive)
- GI50 (SK-MEL-5): > 100 µM (inactive)
- GI50 (SN12C): > 100 µM (inactive)
- GI50 (SNB-19): > 100 µM (inactive)
- GI50 (SNB-75): > 100 µM (inactive)
- GI50 (SR): > 100 µM (inactive)
- GI50 (SW-620): > 100 µM (inactive)
- GI50 (TK-10): > 100 µM (inactive)
- GI50 (U-251): > 100 µM (inactive)
- GI50 (UACC-257): > 100 µM (inactive)
- GI50 (UO-31): 92.3 µM (inactive)
